{"source": "patent US20110104664A1", "about": "“BIOMARKERS AND METHODS FOR DETERMINING SENSITIVITY TO MICORTUBULE-STABILIZING AGENTS” (Bristol-Myers Squibb Company, priority 2006, published 2011)", "test_system": "invasive stage IIA-IIIB breast adenocarcinoma", "experiment": "CA163-080 phase II trial: pathologic complete response (pCR) in the breast after neoadjuvant ixabepilone, Sataloff classification", "assay_type": "in vivo, human", "method": "CA163-080 (080 trial) is an exploratory genomic phase II study that was conducted in breast cancer patients who received ixabepilone as a neoadjuvant treatment. The primary objective of this study was to identify predictive markers of response to ixabepilone through gene expression profiling of pre-treatment breast cancer biopsies. Patients with invasive stage IIA-IIIB breast adenocarcinoma (tumor size ≧3 cm diameter) received 40 mg/m^2 ixabepilone as a 3-hour infusion on Day for up to four 21-day cycles, followed by surgery within 3-4 weeks of completion of chemotherapy. A total of 164 patients were enrolled in this study. Biopsies for gene expression analysis were obtained both pre- and post-treatment. Upon isolation of biopsies from the patients, samples were either snap frozen in liquid nitrogen or placed into RNAlater solution overnight, followed by removal from the RNAlater solution. All samples were kept at −70° C. until use.\nPathological response was assessed using the Sataloff classification system (D. Sataloff et al., J. Am. Coll. Surg., 180(3):297-306 (1995)) and used as an end point for the pharmacogenomic analysis. The pathologic response was evaluated in the primary tumor site at the end of treatment and prior to surgery by assessing histologic changes compared with baseline as following: At the primary tumor site, cellular modifications were evaluated in both the infiltrating tumoral component and in the possible ductal component, to determine viable residual infiltrating component (% of total tumoral mass); residual ductal component (% of total tumoral mass); the mitotic index. Pathologic Complete Response (pCR) in the breast only was defined as T-A, Total or near total therapeutic effect in primary site. […] The response rate was defined as the number of responders divided by the number of treated patients.\nBased on the definition of Pathology Complete Response (pCR), there are 23 responders and 111 non-responders in the 080 trial. Estrogen receptor 1 (ER) was previously found to be the best single-gene predictor with negative prediction value (NPV) 92% and positive prediction value (PPV) 37%, as described in PCT Publication No. ______ (PCT Application No. PCT/US2005/043261).\nThe data were based on the 080 trial. Patients' ER and PR status were determined by IHC assay.", "key": {"[1]": {"conditions": "134 patients of the genomic dataset, 080 trial"}, "[2]": {"conditions": "ER− group of the genomic dataset"}}, "data": [{"smiles": "C/C(=C\\c1csc(C)n1)[C@@H]1C[C@@H]2O[C@]2(C)CCC[C@H](C)[C@H](O)[C@@H](C)C(=O)C(C)(C)[C@@H](O)CC(=O)N1", "note": "[ixabepilone]", "values": [{"measurement": "number of non-responders (no pCR)", "setting": "[1]", "result": 111}, {"measurement": "number of responders (pCR)", "setting": "[1]", "result": 23}, {"measurement": "pCR response rate", "setting": "ER+ PR+ patients (IHC), 080 trial", "result": "4/62 = 6%"}, {"measurement": "pCR response rate", "setting": "ER+ PR− patients (IHC), 080 trial", "result": "4/15 = 26.7%"}, {"measurement": "pCR response rate", "setting": "ER− PR+ patients (IHC), 080 trial", "result": "0/9 = 0%"}, {"measurement": "pCR response rate", "setting": "ER− PR− patients (IHC), 40 mg/m^2 3-hour infusion, up to four 21-day cycles, 080 trial", "result": "20/61 = 33%"}, {"measurement": "number of non-responders (no pCR)", "setting": "[2]", "result": 37}, {"measurement": "number of responders (pCR)", "setting": "[2]", "result": 18}, {"measurement": "pCR response rate", "setting": "all ER+ patients (IHC), 080 trial", "result": "8/77 = 10.4%"}, {"measurement": "pCR response rate", "setting": "all ER− patients (IHC), 080 trial", "result": "20/70 = 29%"}, {"measurement": "pCR response rate", "setting": "all PR+ patients (IHC), 080 trial", "result": "4/71 = 5.6%"}, {"measurement": "pCR response rate", "setting": "all PR− patients (IHC), 080 trial", "result": "24/76 = 31.5%"}, {"measurement": "pCR response rate", "setting": "overall, all patients with ER and PR status, 080 trial", "result": "Overall: 18%"}]}]}
